This is an account of results in US6784167B2, “17-beta-hydroxysteroid dehydrogenase-II inhibitors” (Bayer Pharmaceuticals Corporation, priority 2000, dated 2004).

In data set [1] the target is T1, 17-Beta HSD II Enzyme (Homo sapiens, UniProt P37059).
T1 construct: made in house; host or cells: insect cells (baculovirus)
T1 sequence (P37059 1-387): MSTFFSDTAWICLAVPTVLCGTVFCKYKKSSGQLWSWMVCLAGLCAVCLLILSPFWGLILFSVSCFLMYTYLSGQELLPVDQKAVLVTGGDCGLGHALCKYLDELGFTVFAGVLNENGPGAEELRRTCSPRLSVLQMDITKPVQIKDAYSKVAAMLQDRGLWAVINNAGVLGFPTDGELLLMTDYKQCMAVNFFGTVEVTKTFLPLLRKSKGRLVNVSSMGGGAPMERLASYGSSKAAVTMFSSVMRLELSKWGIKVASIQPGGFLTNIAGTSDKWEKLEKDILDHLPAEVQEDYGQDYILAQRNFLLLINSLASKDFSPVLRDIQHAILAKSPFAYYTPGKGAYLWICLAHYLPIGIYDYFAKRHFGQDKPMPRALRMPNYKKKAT
Briefly: Primary assay: inhibition of 17-Beta HSD II enzyme (estradiol/NAD, PMS:MTS colorimetric readout at 490 nm). The format is biochemical. The note with it: Table 7, baculovirus-expressed recombinant HSD II, estradiol substrate. How it is done: HSD II protein purification: The method for purification of baculovirus-expressed HSD II was standardized as follows. The insect cell pellet containing recombinant HSD II was lysed in 2.5 volumes of lysis buffer (40 mM Tris, pH 7.5, 1 mM EDTA, 2 mM DTT, 10 uM NAD) containing 500 uM AEBSF, 10 ug/ml aprotinin, 1 uM pepstatin A, and 100 uM leupeptin. The pellet was nutated for 30 min in this buffer. Subsequently, the pellet was homogenized with 15 strokes using a glass and teflon potter. The volume was doubled with a 2× sucrose/NaCl solution (500 mM sucrose, 300 mM NaCl in lysis buffer). After centrifugation at 10,000×g for 30 min, the supernatant was decanted and stored at −20° C. The pellet was resuspended in 2.5 volumes of lysis buffer containing 250 mM sucrose and 150 mM NaCl. Homogenization was repeated (15 strokes) and the suspension was centrifuged again and the decanted supernatant was stored at −20° C. The pellet was resuspended with 2 times the original pellet volume in lysis buffer containing 150 mM NaCl and 1% Triton X-100. The suspension was nutated for 20 min and then homogenized with 5 strokes. Subsequently, the suspension was centrifuged at 30,000×g for 1 h and supernatant was decanted and poured into a chromatographic column. Sephadex G-25 (fine) was added in small amounts, allowing approximately 15 min after each addition for complete swelling. Sephadex addition was continued until all liquid was absorbed. The protein was eluted with 1 void volume of lysis buffer and eluate monitored at 280 nm optical density. The chromatographic procedure was repeated and an equal volume of glycerol was added to the final eluate.
Primary assay: After titration, the HSD II prep, generated with the standard protocol, was diluted to the appropriate concentration (generally 1/15 dilution). 55 μl of assay buffer (50 mM Hepes, pH 8.0) was added to all wells of a 96 well plate. 5 μl of 5% DMSO were added to wells A1-C1, A2-C2, F1-H1, and F2-H2. A 10 μl aliquot of a 10 mM solution in DMSO of each compound was diluted in 190 μl of assay buffer. The plate with these compound dilutions was then mixed for 15 min on a shaker and a 5 μl aliquot from each well was added to the […]. This was followed by 10 μl of HSD II enzyme ( 1/15 dilution)/estradiol mix in assay buffer containing 1% Triton X-100. The estradiol […] from a 20 mM estradiol DMSO stock solution, which was diluted 1/20 (50 μl/ml) in 50 mM Hepes buffer containing 1% Triton X-100. All wells, except F1-H1 and F2-H2, also received 10 μl of 25 mg/ml NAD (SIGMA) in 100 mM Hepes, pH 9. The blank wells F1-H1 and F2-H2 received 10 μl of NAD buffer. 20 μl of PMS:MTS solution (100 μl PMS into 1800 μl MTS, Promega) was added to all wells. The plate was covered with aluminum foil and incubated at room temperature for 1.5 h. The plate was analyzed at 490 nm on a Hewlett Pachard 8453 spectrophotometer and results were calculated.

[2] abbreviates: read-out: IC50 values ≧2 μM and <10 μM.

Like-named read-outs stand apart in the source and are kept apart here.

A word on the IC50: it is the point on the concentration scale where inhibition reaches its midpoint. The melting point is the temperature of the solid-liquid transition. Take `CN1C(=O)CC(c2ccccc2)C1C(O)c1ccc(-c2ccc(C(=O)O)cc2)s1` (stereo not drawn) [Example 68]: the melting point was 232 °C (dec.). The IC50 in data set [1] was less than 500 nM.

Molecule `CN1C(=O)C[C@H](c2ccccc2)[C@@H]1[C@H](O)c1csc2ccccc12` (racemic) [Example 54] displayed a melting point greater than 210 °C. In addition, the IC50 in data set [1] (setting [2]) was 2000 to 10000 nM.

The molecule `CN1C(=O)CC(c2ccccc2)C1C(O)C#Cc1ccc(F)cc1` (stereo not drawn) [Example 124] displayed a melting point of 154 to 156 °C. Further, in data set [1], the IC50 was less than 500 nM.

`CC(=O)Nc1cccc(-c2ccc([C@@H](O)[C@H]3[C@@H](c4ccccc4)CC(=O)N3C)o2)c1` (racemic) [Example 121] displayed a melting point of 193 °C. Further, the 50% inhibitory concentration (IC50) in data set [1] (setting [2]) fell in the range of 2000 to 10000 nM.

In turn, `CN1C(=O)C[C@H](c2ccccc2)[C@@H]1[C@H](O)C#CCN1CCS(=O)(=O)CC1` (racemic) [Example 130] came in with a melting point of 217 to 218 °C. For the same molecule, in data set [1] (setting [2]), the IC50 was in the range of 2000 to 10000 nM.

In turn, `CO[C@H](c1cccc(Cl)c1)[C@H]1[C@@H](c2ccccc2)CC(=O)N1C` [Example 142] gave a melting point of 95 to 96 °C. For the same molecule, the IC50 in data set [1] (setting [2]) lay within 2000 to 10000 nM.

`CN1C(=O)C[C@H](c2ccc(N)cc2)[C@@H]1[C@H](O)c1ccc(-c2ccccc2)s1` (relative stereo) [Example 17, (±)-(4R*,5R*)-5-[(1S*)-hydroxy(5-phenyl(2-thienyl))methyl]-4-(4-aminophenyl)-1-methylpyrrolidin-2-one]: the melting point lay in the range of 221 to 222 °C. For the same molecule, in data set [1], the IC50 is less than 500 nM.

In turn, `Cc1ccc(-c2ccc(C(O)C3C(c4ccccc4)CC(=O)N3C)o2)cc1` (stereo not drawn) [Example 115] yielded a melting point of 187 °C. Moreover, the IC50 in data set [1] (setting [2]) fell in the range of 2000 to 10000 nM.

In turn, `CN1C(=O)C[C@H](c2ccccc2F)[C@@H]1[C@H](O)c1cccc(Cl)c1` [Example 154] gave a melting point of 184 to 185 °C. The IC50 in data set [1] is less than 500 nM.

Regarding `CN1C(=O)C[C@H](c2ccccc2)[C@@H]1[C@H](O)c1ccc(S(=O)(=O)N2CCSCC2)s1` (racemic) [Example 35], the melting point lay within 197 to 199 °C. Further, the IC50 in data set [1] was less than 500 nM.

`CN1C(=O)CC(c2ccccc2)C1C(O)c1ccc(-c2ccc(O)cc2)s1` (stereo not drawn) [Example 52]: the melting point is 184 to 186 °C (dec.). For the same molecule, the IC50 in data set [1] was less than 500 nM.

`CN1C(=O)C[C@H](c2ccccc2)[C@@H]1[C@H](O)c1cccc(-c2ccccc2)c1` (racemic) [Example 98] yielded a melting point of 173 to 176 °C. For the same molecule, in data set [1], the half-inhibitory concentration (IC50) was less than 500 nM.

Molecule `Cc1sc([C@@H](O)[C@H]2[C@@H](c3ccccc3)CC(=O)N2C)cc1-c1ccccc1` (racemic) [Example 38] showed a melting point of 78 to 82 °C. Also, the IC50 in data set [1] is less than 500 nM.

Turning to `CN1C(=O)C[C@H](c2ccccc2F)[C@@H]1[C@H](O)c1ccc(-c2ccccn2)s1` [Example 153], the melting point lay in the range of 213 to 215 °C. Also, in data set [1], the IC50 was less than 500 nM.

`Cc1ccc(-c2ccc([C@@H](O)[C@H]3[C@@H](c4ccccc4)CC(=O)N3C)s2)c(F)c1` (racemic) [Example 72]: the melting point came to 182 °C. For the same molecule, in data set [1], the IC50 was less than 500 nM.

Molecule `CN1C(=O)CC(c2ccccc2)C1C(O)c1ccc(-c2cccc([N+](=O)[O-])c2)o1` (stereo not drawn) [Example 123] returned a melting point of 100 °C. Also, the IC50 in data set [1] (setting [2]) is 2000 to 10000 nM.

In turn, `CSc1ccc(-c2ccc([C@@H](O)[C@H]3[C@@H](c4ccccc4)CC(=O)N3C)s2)cc1` (racemic) [Example 69] had a melting point of 187 °C. Also, the IC50 in data set [1] (setting [2]) lay within 2000 to 10000 nM.

For `CN1C(=O)CC(c2ccccc2)C1C(O)c1ccc(-c2cccnc2)s1` (racemic) [Example 78], the melting point was 210 °C. Moreover, the IC50 in data set [1] is less than 500 nM.

Regarding `CN1C(=O)C[C@H](c2ccccc2F)[C@@H]1[C@H](O)c1ccc(-c2ccccc2)s1` (racemic) [Example 83], the melting point was 219 to 220 °C (dec.). Moreover, the IC50 in data set [1] is less than 500 nM.

`CN1C(=O)CC(c2ccccc2)C1C(O)c1ccc(Cl)c(Cl)c1` (stereo not drawn) [Example 99] registered a melting point of 193 to 195 °C. Besides, in data set [1], the IC50 is less than 500 nM.

The molecule `CN1C(=O)C[C@H](c2ccccc2F)[C@@H]1[C@H](O)c1ccc(-c2cccnc2)s1` [Example 151] displayed a melting point of 195 to 197 °C. The IC50 in data set [1] is less than 500 nM.

In turn, `CN1C(=O)C[C@H](c2ccccc2)[C@@H]1[C@H](O)c1ccc(-c2ccccc2C(F)(F)F)s1` (racemic) [Example 34] had a melting point of 192 °C. Also, the IC50 in data set [1] is less than 500 nM.

Molecule `CN1C(=O)C[C@H](c2ccccc2)[C@@H]1[C@H](O)C#Cc1ccc(-c2ccccc2)cc1` (racemic) [Example 136] registered a melting point of 217 to 218 °C. In addition, the IC50 in data set [1] (setting [2]) fell in the range of 2000 to 10000 nM.

Take `COc1ccccc1[C@H]1CC(=O)N(C)[C@H]1[C@H](O)c1ccc(S(=O)(=O)c2ccccc2)s1` (racemic) [Example 91]: the melting point is 160 °C. Moreover, in data set [1], the IC50 was less than 500 nM.

Molecule `CN1C(=O)CC(c2ccccc2)C1C(O)c1ccc(S(=O)(=O)c2ccc(Cl)cc2)s1` (racemic) [Example 62] yielded a melting point of 207 to 208 °C. Also, the IC50 in data set [1] was less than 500 nM.

Take `CCO[C@H](c1cccs1)[C@H]1[C@@H](c2ccccc2)CC(=O)N1C` [Example 139]: the melting point is 142 to 144 °C. For the same molecule, the IC50 in data set [1] (setting [2]) fell in the range of 2000 to 10000 nM.

Regarding `CN1C(=O)CC(c2ccccc2)C1C(O)c1ccc(S(=O)(=O)N2CCOCC2)s1` (stereo not drawn) [Example 36], the melting point is 214 to 218 °C. Besides, in data set [1], the IC50 was less than 500 nM.

Molecule `CN1C(=O)CC(c2ccccc2)C1C(O)c1ccc(-c2ccc(C(F)(F)F)cc2)s1` (stereo not drawn) [Example 32] came in with a melting point of 206 °C. For the same molecule, the concentration for half-maximal inhibition (IC50) in data set [1] (setting [2]) fell in the range of 2000 to 10000 nM.

`CN1C(=O)C[C@H](c2ccccc2F)[C@@H]1[C@H](O)c1ccc(S(=O)(=O)c2ccccc2)s1` (racemic) [Example 89] came in with a melting point of 232 °C. Moreover, the IC50 in data set [1] is less than 500 nM.

In turn, `CN1C(=O)C[C@H](c2ccccc2)[C@@H]1[C@H](O)c1cccc2ccccc12` (racemic) [Example 94] returned a melting point of 255 to 256 °C. Besides, in data set [1] (setting [2]), the IC50 lay in the range of 2000 to 10000 nM.

Consider `Cc1cc(-c2ccccc2)c([C@@H](O)[C@H]2[C@@H](c3ccccc3)CC(=O)N2C)s1` (racemic) [Example 43], for which the melting point amounted to 85 °C. Further, the IC50 in data set [1] is less than 500 nM.

In turn, `COc1cccc(-c2ccc(C(O)C3C(c4ccccc4)CC(=O)N3C)o2)c1` (stereo not drawn) [Example 120] returned a melting point of 157 °C. Moreover, the IC50 in data set [1] (setting [2]) fell in the range of 2000 to 10000 nM.

Molecule `CN1C(=O)C[C@H](c2ccccc2)[C@@H]1[C@H](O)c1cccc(-c2ccc(F)cc2)c1` (racemic) [Example 104] displayed a melting point of 210 °C. Also, the 50% inhibitory concentration (IC50) in data set [1] (setting [2]) was 2000 to 10000 nM.

`CN1C(=O)CC(c2ccccc2)C1C(O)c1ccc(S(=O)(=O)c2ccc(F)cc2)s1` (stereo not drawn) [Example 76] returned a melting point of 192 °C. Also, the IC50 in data set [1] is less than 500 nM.

With `CN1C(=O)CC(c2ccccc2)C1C(O)c1ccc(S(=O)(=O)N2CCN(c3ccc(F)cc3)CC2)s1` (racemic) [Example 37], the melting point fell in the range of 167 to 175 °C. The IC50 in data set [1] is less than 500 nM.

`CN1C(=O)C[C@H](c2ccccc2)[C@@H]1[C@H](O)c1ccc(-c2ccc(C(=O)O)cc2)o1` (racemic) [Example 118] came in with a melting point of 194 °C. For the same molecule, the IC50 in data set [1] (setting [2]) was 2000 to 10000 nM.
